The first assay deals with KM mice. Nature of the assay: Test for drug-induced disappearance of righting reflex in mice. The note with it: 30 mg/kg, single rapid bolus via tail vein. Format: in vivo. An excerpt:
In anesthetic drug experiments, latency generally refers to the time from the start of administration to the loss of consciousness of the subject. The shorter latency is preferred, indicating a rapid onset of action after administration. The duration of anesthesia generally refers to the duration of time from the loss of consciousness to the restoration of consciousness of the subject. The duration of the drug will vary from animal model to animal species. Too long anesthesia may produce adverse cardiovascular and respiratory responses, such as adverse neurological effects to the subject, including sleepiness and dizziness; meanwhile, too short duration of anesthesia may affect the anesthesia effect, causing problems such as increase of anesthesia dosage during the operation.
KM mice (female, 18-25 g) were randomly grouped and subjected to a single administration by rapid bolus via the tail vein. The latency and duration of disappearance of righting reflex in the mice were recorded.
As for `COC(=O)CC[C@@H]1N=C(c2ccccc2F)c2cc(Br)ccc2-n2c(SCc3ccncc3)nnc21` [Compound 125, methyl (S)-3-(8-bromo-6-(2-fluorophenyl)-1-(2-((pyridin-4-yl)methyl)thio)-4H-benzo[f][1,2,4]triazolo[4,3-a][1,4]diazepin-4-yl)propionate], the Duration was 7.81 min and the Latency is recorded as 0.19 min.
`CCOC(=O)CC[C@@H]1N=C(c2ccccc2Cl)c2cc(Br)ccc2-n2c(SC)nnc21` [Compound 43, ethyl (S)-3-(8-bromo-6-(2-chlorophenyl)-1-(methylthio)-4H-benzo[f][1,2,4]triazolo[4,3-a][1,4]diazepin-4-yl)propionate] had a Duration of 12.38 min and a Latency of 0.38 min.
The molecule `COC(=O)CC[C@@H]1N=C(c2ccccc2F)c2cc(Cl)ccc2-n2c(SC)nnc21` [Compound 8, methyl (S)-3-(8-chloro-6-(2-fluorophenyl)-1-(methylthio)-4H-benzo[f][1,2,4]triazolo[4,3-a][1,4]diazepin-4-yl)propionate] showed a Duration of 8.35 min and a Latency of 0.36 min.
In turn, `COC(=O)CC[C@@H]1N=C(c2ccccc2F)c2cc(Cl)ccc2-n2c(SCCN)nnc21` [Compound 20, methyl (S)-3-(8-chloro-6-(2-fluorophenyl)-1-((2-aminoethyl)thio)-4H-benzo[f][1,2,4]triazolo[4,3-a][1,4]diazepin-4-yl)propionate] displayed a Duration of 9.82 min and a Latency of 0.27 min.
`COC(=O)CC[C@@H]1N=C(c2ccccc2F)c2cc(Br)ccc2-n2c(SCC3CC3)nnc21` [Compound 46, methyl (S)-3-(8-bromo-1-((cyclopropylmethyl)thio)-6-(2-fluorophenyl)-4H-benzo[f][1,2,4]triazolo[4,3-a][1,4]diazepin-4-yl)propionate] gave a Duration of 10.83 min and a Latency of 0.69 min.
As to `CCOC(=O)CC[C@@H]1N=C(c2ccccc2Cl)c2cc([N+](=O)[O-])ccc2-n2c(SC)nnc21` [Compound 44, ethyl (S)-3-(8-nitro-6-(2-chlorophenyl)-1-(methylthio)-4H-benzo[f][1,2,4]triazolo[4,3-a][1,4]diazepin-4-yl)propionate], the Duration came out at 16.27 min and the Latency is 1.28 min.
Turning to `COC(=O)CC[C@@H]1N=C(c2ccccc2)c2cc([N+](=O)[O-])ccc2-n2c(SC)nnc21` [Compound 104, methyl (S)-3-(8-nitro-1-(methylthio)-6-phenyl-4H-benzo[f][1,2,4]triazolo[4,3-a][1,4]diazepin-4-yl)propionate], the Duration was 9.78 min and the Latency was found to be 0.77 min.
Molecule `COC(=O)CC[C@@H]1N=C(c2ccccc2)c2cc(Cl)ccc2-n2c1n[nH]c2=S` [Tautomer of compound 7, methyl (S)-3-(8-chloro-6-phenyl-1-thio-2,4-dihydro-1H-benzo[f][1,2,4]triazolo[4,3-a][1,4]diazepin-4-yl)propionate] showed a Duration of 9.22 min and a Latency of 0.95 min.
Molecule `COC(=O)CC[C@@H]1N=C(c2ccccc2F)c2cc(Cl)ccc2-n2c(SCCO)nnc21` [Compound 17, methyl (S)-3-(8-chloro-6-(2-fluorophenyl)-1-((2-hydroxyethyl)thio)-4H-benzo[f][1,2,4]triazolo[4,3-a][1,4]diazepin-4-yl)propionate] came in with a Duration of 15.35 min and a Latency of 1.09 min.
On to `COC(=O)CC[C@@H]1N=C(c2ccccn2)c2cc(Br)ccc2-n2c(S)nnc21` [Compound 3, methyl (S)-3-(8-bromo-6-(pyridin-2-yl)-1-mercapto-4H-benzo[f][1,2,4]triazolo[4,3-a][1,4]diazepin-4-yl)propionate], for which the Duration is listed as 7.37 min and the Latency is reported as 0.48 min.
In the same order, the values of `COC(=O)CC[C@@H]1N=C(c2ccccc2F)c2cc(Br)ccc2-n2c(SCCN3CCCC3)nnc21` [Compound 120, methyl (S)-3-(8-bromo-6-(2-fluorophenyl)-1-(2-((pyrrolidin-1-yl)ethyl)thio)-4H-benzo[f][1,2,4]triazolo[4,3-a][1,4]diazepin-4-yl)propionate] are 19.47 min and 0.29 min.
On to `COC(=O)CC[C@@H]1N=C(c2ccccc2Cl)c2cc(Cl)ccc2-n2c(SC(=O)N3CCN(C)CC3)nnc21` [Compound 130, methyl (S)-3-(8-chloro-6-(2-chlorophenyl)-1-(2-(4-methylpiperazine-1-carbonyl)thio)-4H-benzo[f][1,2,4]triazolo[4,3-a][1,4]diazepin-4-yl)propionate], for which the Duration worked out at 18.27 min and the Latency worked out at 0.52 min.
Consider `COC(=O)CC[C@@H]1N=C(c2ccccc2Cl)c2cc(Cl)ccc2-n2c(SCCN3CCC(F)(F)CC3)nnc21` [Compound 127, methyl (S)-3-(8-chloro-6-(2-chlorophenyl)-1-(2-((4,4-difluoropiperidin-1-yl)ethyl)thio)-4H-benzo[f][1,2,4]triazolo[4,3-a][1,4]diazepin-4-yl)propionate], for which the Duration worked out at 18.11 min and the Latency stood at 0.43 min.
Take `COC(=O)CC[C@@H]1N=C(c2ccccc2Cl)c2cc([N+](=O)[O-])ccc2-n2c(SCN3CCOCC3)nnc21` [Compound 101, methyl (S)-3-(8-nitro-6-(2-chlorophenyl)-1-((morpholinomethyl)thio)-4H-benzo[f][1,2,4]triazolo[4,3-a][1,4]diazepin-4-yl)propionate]: the Duration is 12.05 min and the Latency is recorded as 0.85 min.
In the same order, the values of `COC(=O)CC[C@@H]1N=C(c2ccccc2F)c2cc([N+](=O)[O-])ccc2-n2c(SC3CCN(C)CC3)nnc21` [Compound 65, methyl (S)-3-(8-nitro-6-(2-fluorophenyl)-1-((1-methylpiperidin-4-yl)thio)-4H-benzo[f][1,2,4]triazolo[4,3-a][1,4]diazepin-4-yl)propionate] are 17.25 min and 1.74 min.
Consider `COC(=O)CC[C@@H]1N=C(c2ccccc2F)c2cc([N+](=O)[O-])ccc2-n2c(SCCO)nnc21` [Compound 19, methyl (S)-3-(8-nitro-6-(2-fluorophenyl)-1-((2-hydroxyethyl)thio)-4H-benzo[f][1,2,4]triazolo[4,3-a][1,4]diazepin-4-yl)propionate], for which the Duration was 16.22 min and the Latency was determined as 0.89 min.
In the same order, the values of `COC(=O)CC[C@@H]1N=C(c2ccccc2)c2cc(Cl)ccc2-n2c(SCCN3CCOCC3)nnc21` [Compound 105, methyl (S)-3-(8-chloro-1-((2-morpholinoethyl)thio)-6-phenyl-4H-benzo[f][1,2,4]triazolo[4,3-a][1,4]diazepin-4-yl)propionate] are 13.94 min and 0.63 min.
On to `COC(=O)CC[C@@H]1N=C(c2ccccn2)c2cc(Br)ccc2-n2c(SCCCN(C)C)nnc21` [Compound 118, methyl (S)-3-(8-bromo-6-(pyridin-2-yl)-1-(3-((dimethylamino)propyl)thio)-4H-benzo[f][1,2,4]triazolo[4,3-a][1,4]diazepin-4-yl)propionate], for which the Duration is listed as 15.44 min and the Latency was 0.32 min.
The molecule `CCSc1nnc2n1-c1ccc(Br)cc1C(c1ccccc1F)=N[C@H]2CCC(=O)OC` [Compound 12, methyl (S)-3-(8-bromo-6-(2-fluorophenyl)-1-(ethylthio)-4H-benzo[f][1,2,4]triazolo[4,3-a][1,4]diazepin-4-yl)propionate] yielded a Duration of 17.21 min and a Latency of 0.74 min.

Still in this assay, the particulars now being: 60 mg/kg, single rapid bolus via tail vein.
`COC(=O)CC[C@@H]1N=C(c2ccccc2Cl)c2cc(Cl)ccc2-n2c(SCCN3CCOCC3)nnc21` [Compound 81, methyl (S)-3-(8-chloro-6-(2-chlorophenyl)-1-((2-morpholinoethyl)thio)-4H-benzo[f][1,2,4]triazolo[4,3-a][1,4]diazepin-4-yl)propionate] showed a Duration of 6.41 min and a Latency of 0.21 min.
Turning to `CCOC(=O)CC[C@@H]1N=C(c2ccccc2Cl)c2cc(Br)ccc2-n2c(SC)nnc21` [Compound 43, ethyl (S)-3-(8-bromo-6-(2-chlorophenyl)-1-(methylthio)-4H-benzo[f][1,2,4]triazolo[4,3-a][1,4]diazepin-4-yl)propionate], the Duration was 7.25 min and the Latency came out at 0.84 min.
`CCSc1nnc2n1-c1ccc([N+](=O)[O-])cc1C(c1ccccc1Cl)=N[C@H]2CCC(=O)OC` [Compound 28, methyl (S)-3-(8-nitro-6-(2-chlorophenyl)-1-(ethylthio)-4H-benzo[f][1,2,4]triazolo[4,3-a][1,4]diazepin-4-yl)propionate]: the Duration stood at 4.24 min and the Latency is given as 0.46 min.
`COC(=O)CC[C@@H]1N=C(c2ccccc2)c2cc(Cl)ccc2-n2c(SCCN3CCOCC3)nnc21` [Compound 105, methyl (S)-3-(8-chloro-1-((2-morpholinoethyl)thio)-6-phenyl-4H-benzo[f][1,2,4]triazolo[4,3-a][1,4]diazepin-4-yl)propionate] displayed a Duration of 13.17 min and a Latency of 0.49 min.
As to `COC(=O)CC[C@@H]1N=C(c2ccccc2F)c2cc(Cl)ccc2-n2c(SCCCN(C)C)nnc21` [Compound 57, methyl (S)-3-(8-chloro-1-((3-(dimethylamino)propyl)thio)-6-(2-fluorophenyl)-4H-benzo[f][1,2,4]triazolo[4,3-a][1,4]diazepin-4-yl)propionate], the Duration turned out to be 5.89 min and the Latency came out at 0.31 min.
Molecule `COC(=O)CC[C@@H]1N=C(c2ccccc2Cl)c2cc(Cl)ccc2-n2c(SCN3CCOCC3)nnc21` [Compound 99, methyl (S)-3-(8-chloro-6-(2-chlorophenyl)-1-((morpholinomethyl)thio)-4H-benzo[f][1,2,4]triazolo[4,3-a][1,4]diazepin-4-yl)propionate] displayed a Duration of 19.37 min and a Latency of 2.63 min.

Still in this assay, the particulars now being: 100 mg/kg, single rapid bolus via tail vein.
For `COC(=O)CC[C@@H]1N=C(c2ccccc2Cl)c2cc(Cl)ccc2-n2c(SCCN3CCOCC3)nnc21` [Compound 81, methyl (S)-3-(8-chloro-6-(2-chlorophenyl)-1-((2-morpholinoethyl)thio)-4H-benzo[f][1,2,4]triazolo[4,3-a][1,4]diazepin-4-yl)propionate], the Duration stood at 12.38 min and the Latency turned out to be 0.22 min.

(Values after patent US20230416258A1, “BENZ[…], AND PREPARATION METHOD THEREFOR AND USE THEREOF” (CHINA PHARMACEUTICAL UNIVERSITY, priority 2020, published 2023).)
